# Laboratory results: patent US20230330059A1, “3-PHENYL-2H-CHROMENE DERIVATIVE AND PHARMACEUTICAL COMPOSITION FOR PREVENTING OR TREATING ALZHEIMER'S, CONTAINING SAME” (NEUROBIONET, INC., priority 2020, published 2023)
# System: primary microglial cells treated with beta amyloid oligomer (AB1-40)
# Experiment: Cell viability of primary microglia treated with beta amyloid oligomer
# Format: cell-based, ICR mice
# Conditions: 5 µM for 1 hour, then AB1-40 10 µM 24 hours; FIG. 15
# Description: Mouse-derived microglia (BV2 cells) purchased from the Korean Cell Line Bank were seeded at a density of 4x10^5 cells/well into 96-well plates, each well containing DMEM (Dulbecco’s Modified Eagle’s Media) supplemented with 10% FBS and 1% antibiotics, and stabilized by incubation for 24 hours. Thereafter, the cells were treated for 24 hours with various concentrations (0.5, 1, and 5 µM) of daidzein, o-desmethylangolensin (O-DMA), S-equal, SPA1413, and SPA1426. After removal of the medium, the cells were treated 0.5 mg/ml 3-(4,5-dimethylthiazol-2-yl)-2,5-diphenyltetrazolium bromide (MTT) solution 1 hour. The reduced formazan was dissolved in 150 µl of dimethyl sulfoxide (DMSO) and absorbance was read at 570 nm in a microspectrophotometer to determine cell viability. Cell viability of the cells treated with each sample was determined relative to that of the untreated normal control (Control), which was set to be 100%, and the results are depicted in FIGS. 3 and 4 (upper).
# Primary microglial cells isolated from the brain of 1-year-old ICR mice were seeded at a density of 2x10^5 cells/well into 96-well plates and stabilized for 24 hours. Thereafter, the cells were treated with 5 µM of daidzein, S-equal, SPA1413, or SPA1426 for 1 hour and then with beta amyloid oligomer (AB1-40, 10 µM) for 24 hours at 37° C. Cell viability was assayed in the same manner as in Experimental Example 2.
compound,measurement,value
"Oc1ccc(C2=Cc3ccc(O)cc3OC2)cc1 [SPA1413, 3-(4-Hydroxyphenyl)-2H-chromen-7-ol]",cell viability after beta amyloid oligomer treatment,significantly increased in cell viability
